Measured values from patent publication US7964531B2, “3-phenoxy-4-pyridazinol derivatives and herbicidal composition containing the same” (Mitsui Chemicals Agro, Inc., priority 2001, dated 2011).

melting point	SMILES
159 to 161 °C	Cc1cccc(C2CC2)c1Oc1nnc(Cl)cc1OC(=O)N(CCC#N)CCC#N
98 to 101 °C	CC(=O)Oc1cc(Cl)nnc1Oc1c(C)cccc1C1CC1 [Compound No. 1151, 6-Chloro-3-(2-cyclopropyl-6-methylphenoxy)-4-pyridazinyl acetate]
112 to 115 °C	Cc1cccc(C2CC2)c1Oc1nnc(Cl)cc1OC(=O)C(C)(C)CCl [Compound No. 2703, 6-Chloro-3-(2-cyclopropyl-6-methylphenoxy)-4-pyridazinyl 3-chloro-2,2-dimethylpropanoate]
140 to 141 °C	Cc1cccc(Oc2nnc(Cl)cc2O)c1Br [Compound No. 450, 3-(2-Bromo-3-methylphenoxy)-6-chloro-4-pyridazinol]
228 to 229.5 °C	CC1(C)Cc2cccc(Oc3nnc(Cl)cc3O)c2O1 [Compound No. 540, 6-Chloro-3-[(2,2-dimethyl-2,3-dihydro-1-benzofuran-7-yl)oxy]-4-pyridazinol]
215 to 220 °C	CC(C)c1cccc(F)c1Oc1nnc(Cl)cc1O [Compound No. 717, 6-Chloro-3-(2-fluoro-6-isopropylphenoxy)-4-pyridazinol]
222 to 225 °C	Cc1ccc2c(c1Oc1nnc(Cl)cc1O)CCC2 [Compound No. 1088, 6-Chloro-3-[(5-methyl-2,3-dihydro-1H-inden-4-yl)oxy]-4-pyridazinol]
113 to 115 °C	Cc1cccc(C2CC2)c1Oc1nnc(Cl)cc1OC(=O)N(C)C(C)(C)C
262 to 264 °C	Oc1cc(Cl)nnc1Oc1c(Cl)cccc1I [Compound No. 735, 6-Chloro-3-(2-chloro-6-iodophenoxy)-4-pyridazinol]
206 to 211 °C	Oc1cc(Cl)nnc1Oc1cccc2c1OCO2 [Compound No. 544, 3-(1,3-Benzodioxol-4-yloxy)-6-chloro-4-pyridazinol]
209 to 213 °C	Oc1cc(Cl)nnc1Oc1c(F)cccc1F [Compound No. 710, 6-Chloro-3-(2,6-difluorophenoxy)-4-pyridazinol]
192 to 208 °C	CC1CC1c1ccccc1Oc1nnc(Cl)cc1O (stereo not shown) [Compound No. 217, 6-Chloro-3-[2-(2-methylcyclopropyl)phenoxy]-4-pyridazinol]
235 to 235.5 °C	Cc1cc(Cl)ccc1Oc1nnc(Cl)cc1O [Compound No. 558, 6-Chloro-3-(4-chloro-2-methylphenoxy)-4-pyridazinol]
230 to 232 °C	Oc1cc(Cl)nnc1Oc1c(Br)cccc1C1CC1 [Compound No. 762, 3-(2-Bromo-6-cyclopropylphenoxy)-6-chloro-4-pyridazinol]
203 to 206 °C	Cn1ccc2c(Oc3nnc(Cl)cc3O)cccc21 [Compound No. 2565, 6-Chloro-3-[(1-methyl-1H-indol-4-yl)oxy]-4-pyridazinol]
242 to 245 °C	CC(C)c1cccc(C2CC2)c1Oc1nnc(Cl)cc1O [Compound No. 896, 6-Chloro-3-(2-cyclopropyl-6-isopropylphenoxy)-4-pyridazinol]
166 to 167 °C	Cc1cccc(C2CC2)c1Oc1nnc(Cl)cc1OC(=O)N(CCCl)CCCl
250 to 252 °C	Cc1cccc(I)c1Oc1nnc(Cl)cc1O [Compound No. 780, 6-Chloro-3-(2-iodo-6-methylphenoxy)-4-pyridazinol]
214 to 215 °C	Cc1cccc(C)c1Oc1nnc(Cl)cc1O [Compound No. 801, 6-Chloro-3-(2,6-dimethylphenoxy)-4-pyridazinol]
91 to 92 °C	Cc1cccc(C2CC2)c1Oc1nnc(Cl)cc1OC(=O)CC(C)(C)C [Compound No. 2662, 6-Chloro-3-(2-cyclopropyl-6-methylphenoxy)-4-pyridazinyl 3,3-dimethylbutanoate]
224 to 225 °C	Oc1cc(Cl)nnc1Oc1c(Cl)cccc1C1CC1 [Compound No. 740, 6-Chloro-3-(2-chloro-6-cyclopropylphenoxy)-4-pyridazinol]
218 to 220 °C	Oc1cc(Cl)nnc1Oc1c(C2CC2)ccc2c1CCC2 [Compound No. 1091, 6-Chloro-3-[(5-cyclopropyl-2,3-dihydro-1H-inden-4-yl)oxy]-4-pyridazinol]
158 to 159 °C	Oc1cc(Cl)nnc1Oc1ccccc1C1CCCCC1 [Compound No. 293, 6-Chloro-3-(2-cyclohexylphenoxy)-4-pyridazinol]
215 to 217 °C	CCc1cccc(Br)c1Oc1nnc(Cl)cc1O [Compound No. 759, 3-(2-Bromo-6-ethylphenoxy)-6-chloro-4-pyridazinol]
92 to 93 °C	Cc1cccc(C2CC2)c1Oc1nnc(Cl)cc1OC(=O)c1cnccc1C(F)(F)F [Compound No. 3462, 6-Chloro-3-(2-cyclopropyl-6-methylphenoxy)-4-pyridazinyl 4-(trifluoromethyl)nicotinate]
200 to 203 °C	Oc1cc(Cl)nnc1Oc1c(F)cccc1C1CC1 [Compound No. 719, 6-Chloro-3-(2-cyclopropyl-6-fluorophenoxy)-4-pyridazinol]
46 to 47 °C	Cc1ccccc1Oc1nnc(Cl)cc1OC(=O)OCC(C)C [Compound No. 1757, 6-Chloro-3-(2-methylphenoxy)-4-pyridazinyl isobutyl carbonate]
199 to 201 °C	COc1cccc(Oc2nnc(Cl)cc2O)c1OC [Compound No. 503, 6-Chloro-3-(2,3-dimethoxyphenoxy)-4-pyridazinol]

Continued, molecule first:

SMILES	melting point
C[Si](C)(C)c1ccc(Oc2nnc(Cl)cc2OC(=O)c2ccccc2)cc1	100 to 102 °C
Oc1cc(Cl)nnc1Oc1ccc(Cl)cc1 [Compound No. 427, 6-Chloro-3-(4-chlorophenoxy)-4-pyridazinol]	226 to 231 °C
Cc1cc(C)c(C)c(Oc2nnc(Cl)cc2O)c1C [Compound No. 1125, 6-Chloro-3-(2,3,5,6-tetramethylphenoxy)-4-pyridazinol]	278 to 283 °C
Cc1cc2c(c(Oc3nnc(Cl)cc3O)c1C)CCC2 [Compound No. 1129, 6-Chloro-3-[(5,6-dimethyl-2,3-dihydro-1H-inden-4-yl)oxy]-4-pyridazinol]	210 to 213 °C
CC(C)(C)c1ccc(Oc2nnc(Cl)cc2O)cc1 [Compound No. 433, 3-(4-tert-Butylphenoxy)-6-chloro-4-pyridazinol]	224 to 225 °C
Cc1cc(Br)c(C)c(Br)c1Oc1nnc(Cl)cc1O [Compound No. 1118, 6-Chloro-3-(2,4-dibromo-3,6-dimethylphenoxy)-4-pyridazinol]	241 to 248 °C
CC(C)(C)c1cccc(Br)c1Oc1nnc(Cl)cc1O [Compound No. 761, 3-(2-Bromo-6-tert-butylphenoxy)-6-chloro-4-pyridazinol]	240 to 247 °C
CC1(c2ccccc2Oc2nnc(Cl)cc2O)CC1 [Compound No. 144, 6-Chloro-3-[2-(1-methylcyclopropyl)phenoxy]-4-pyridazinol]	196 to 198 °C
CSc1ccccc1Oc1nnc(Cl)cc1O [Compound No. 401, 6-Chloro-3-[2-(methylsulfanyl)phenoxy]-4-pyridazinol]	174 to 175 °C
Oc1cc(Cl)nnc1Oc1ccccc1-c1nc2ccccc2o1 [Compound No. 375, 3-[2-(1,3-Benzoxazol-2-yl)phenoxy]-6-chloro-4-pyridazinol]	165 to 167 °C
Cc1ccc(S(=O)(=O)Oc2cc(Cl)nnc2Oc2cccc3ccccc23)cc1 [Compound No. 2240, 6-Chloro-3-(1-naphthyloxy)-4-pyridazinyl 4-methylbenzenesulfonate]	92 to 94 °C
CC(C)c1cc(Oc2nnc(Cl)cc2O)cc(C(C)C)c1 [Compound No. 1007, 6-Chloro-3-(3,5-diisopropylphenoxy)-4-pyridazinol]	249 to 253 °C
C#Cc1ccccc1Oc1nnc(Cl)cc1O [Compound No. 308, 6-Chloro-3-(2-ethynylphenoxy)-4-pyridazinol]	189 to 191 °C
CC=Cc1cc(O)c(Oc2ccccc2C)nn1 [Compound No. 2442, 3-(2-Methylphenoxy)-6-(1-propenyl)-4-pyridazinol]	208 to 210 °C
CC(C)(C)c1ccccc1Oc1nnc(Cl)cc1OS(=O)(=O)c1ccc(Cl)cc1 [Compound No. 2200, 3-(2-tert-Butylphenoxy)-6-chloro-4-pyridazinyl 4-chlorobenzenesulfonate]	83.5 to 84.5 °C
Oc1cc(Cl)nnc1Oc1ccccc1-c1ccccc1 [Compound No. 344, 3-([1,1′-Biphenyl]-2-yloxy)-6-chloro-4-pyridazinol]	98 to 100 °C
CCC(C)c1ccccc1Oc1nnc(Cl)cc1OS(=O)(=O)c1ccc(C)cc1 (stereo not shown) [Compound No. 2223, 3-(2-s-Butylphenoxy)-6-chloro-4-pyridazinyl 4-methylbenzenesulfonate]	65 to 66 °C
Cc1ccccc1Oc1nnc(Cl)cc1OS(=O)(=O)c1ccccc1 [Compound No. 2147, 6-Chloro-3-(2-methylphenoxy)-4-pyridazinyl benzenesulfonate]	91.5 to 92 °C
Oc1cc(Cl)nnc1Oc1cccc(I)c1 [Compound No. 412, 6-Chloro-3-(3-iodophenoxy)-4-pyridazinol]	202 to 203 °C
Oc1cc(Cl)nnc1Oc1cc(C(F)(F)F)cc(C(F)(F)F)c1 [Compound No. 1009, 3-[3,5-Bis(trifluoromethyl)phenoxy]-6-chloro-4-pyridazinol]	237 to 242 °C
CC=Cc1ccccc1Oc1nnc(Cl)cc1O [Compound No. 305, 6-Chloro-3-[2-(1-propenyl)phenoxy}-4-pyridazinol]	204 to 206 °C
Cc1ccccc1Oc1nnc(Cl)c(Oc2ccccc2C)c1O [Compound No. 2395, 6-Chloro-3,5-bis(2-methylphenoxy)-4-pyridazinol]	110 to 115 °C
N#C/C=C/c1ccccc1Oc1nnc(Cl)cc1O [Compound No. 306, (2E)-3-{2-[(6-Chloro-4-hydroxy-3-pyridazinyl)oxy]phenyl}acrylonitrile]	190 to 192 °C
Cc1ccc(S(=O)(=O)Oc2cc(Cl)nnc2Oc2ccc(C)cc2C)cc1 [Compound No. 2247, 6-Chloro-3-(2,4-dimethylphenoxy)-4-pyridazinyl 4-methylbenzenesulfonate]	80 to 81 °C
